From the supplement of paper PMC10307832

Columns and labels:
Assay in all cases: relative viability (nuclei count vs DMSO), 5 days (fraction); higher = more cells survive
[1] = compound: C=CCNC1=C2C[C@@H](C)C[C@H](OC)[C@H](O)[C@@H](C)/C=C(\C)[C@H](OC(N)=O)[C@@H](OC)/C=C\C=C(/C)C(=O)NC(=CC1=O)C2=O [17-AAG] + CS(=O)(=O)CCNCc1ccc(-c2ccc3ncnc(Nc4ccc(OCc5cccc(F)c5)c(Cl)c4)c3c2)o1 [Lapatinib] (partner 2 µM)
In short: (§1)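 Medians of duplicate plates are given as relative viability. That measure is the nuclei count in treated wells divided by the count in vehicle wells. Counts were taken on 4× images of lung cancer cell lines in 1536-well plates, 5 days after pin-tool dosing the day after seeding with one drug alone or a fixed anchor-drug dose plus five library-drug doses (not always all listed) in √10 steps.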

[2] = compound: C=CCNC1=C2C[C@@H](C)C[C@H](OC)[C@H](O)[C@@H](C)/C=C(\C)[C@H](OC(N)=O)[C@@H](OC)/C=C\C=C(/C)C(=O)NC(=CC1=O)C2=O [17-AAG] + Nc1ncn([C@H]2C[C@H](O)[C@@H](CO)O2)c(=O)n1 [Decitabine] (partner 2 µM)
In short: as §1

[3] = compound: C=CCNC1=C2C[C@@H](C)C[C@H](OC)[C@H](O)[C@@H](C)/C=C(\C)[C@H](OC(N)=O)[C@@H](OC)/C=C\C=C(/C)C(=O)NC(=CC1=O)C2=O [17-AAG] + Cc1cc(Nc2cc(N3CCN(C)CC3)nc(Sc3ccc(NC(=O)C4CC4)cc3)n2)n[nH]1 [Tozasertib] (partner 0.1 µM)
In short: as §1

[4] = compound: C=CCNC1=C2C[C@@H](C)C[C@H](OC)[C@H](O)[C@@H](C)/C=C(\C)[C@H](OC(N)=O)[C@@H](OC)/C=C\C=C(/C)C(=O)NC(=CC1=O)C2=O [17-AAG] + C[C@@H](Oc1cc(-c2cnn(C3CCNCC3)c2)cnc1N)c1c(Cl)ccc(F)c1Cl [Crizotinib] (partner 1 µM)
In short: as §1

Cell Line	relative viability ([1]; first compound 0.00128 µM)	relative viability ([1]; first compound 0.004048 µM)	relative viability ([1]; first compound 0.0128 µM)	relative viability ([1]; first compound 0.04048 µM)	relative viability ([1]; first compound 0.128 µM)	relative viability ([2]; first compound 0.00128 µM)	relative viability ([2]; first compound 0.004048 µM)	relative viability ([2]; first compound 0.0128 µM)	relative viability ([2]; first compound 0.04048 µM)	relative viability ([2]; first compound 0.128 µM)	relative viability ([3]; first compound 0.00128 µM)	relative viability ([3]; first compound 0.004048 µM)	relative viability ([3]; first compound 0.0128 µM)	relative viability ([3]; first compound 0.04048 µM)	relative viability ([3]; first compound 0.128 µM)	relative viability ([4]; first compound 0.00128 µM)	relative viability ([4]; first compound 0.004048 µM)	relative viability ([4]; first compound 0.0128 µM)	relative viability ([4]; first compound 0.04048 µM)	relative viability ([4]; first compound 0.128 µM)
BEN	0.859	0.726	0.727	0.405	0.204	0.613	0.712	0.759	0.446	0.288	0.529	0.625	0.473	0.738	0.472	0.896	0.821	0.929	0.739	0.237
COR-L23	0.769	0.82	1.06	0.852	0.169	0.328	0.52	0.432	0.351	0.138	0.2	0.25	0.225	0.158	0.0795	0.725	0.614	0.749	0.339	0.0896
COR-L 105	0.352	0.333	0.344	0.406	0.306	0.655	0.701	0.699	0.484	0.504	0.458	0.356	0.384	0.713	0.418	0.961	0.9	0.793	0.568	0.661
EKVX	0.223	0.218	0.197	0.0769	0.12	0.351	0.284	0.257	0.162	0.139	0.448	0.377	0.398	0.238	0.0984	1.07	0.902	0.951	0.529	0.114
EMC-BAC-2	0.948	0.948	0.907	0.777	0.16	0.98	0.939	0.692	0.31	0.219	0.286	0.297	0.347	0.26	0.226	0.712	0.753	0.756	0.902	0.281
EPLC-272H	1.04	1.02	0.929	0.425	0.153	0.367	0.352	0.307	0.158	0.0907	0.331	0.329	0.482	0.379	0.143	0.956	0.872	1.01	0.672	0.338
H3255	0.296	0.338	0.275	0.235	0.175	0.788	0.566	0.488	0.231	0.198	0.957	0.496	0.612	0.234	0.228	0.926	0.833	0.646	0.196	0.161
HARA	0.694	0.811	0.692	0.831	0.325	0.517	0.57	0.617	0.569	0.232	0.0961	0.125	0.135	0.148	0.132	1.05	1.05	1.06	1.12	0.725
HCC-15	0.795	0.625	0.351	0.225	0.106	0.599	0.557	0.174	0.136	0.137	0.429	0.453	0.365	0.124	0.0778	0.767	0.758	0.456	0.4	0.132
HCC-44	1.06	0.986	0.998	0.287	0.125	0.927	0.964	0.931	0.958	0.355	0.898	0.753	0.293	0.19	0.135	0.823	0.746	0.766	0.204	0.122
HCC-78	1.12	–	0.994	0.603	0.296	0.511	0.841	0.695	0.465	0.369	0.443	0.401	0.418	0.637	0.223	0.378	–	0.351	0.273	0.235
HCC-366	0.858	0.691	0.0214	0.0204	0.0219	0.306	0.393	0.08	0.0528	0.0434	0.191	0.22	0.268	0.044	0.0391	0.463	0.506	0.0283	0.018	0.0156
HCC-827	0.225	0.216	0.193	–	0.259	0.279	0.363	0.308	–	0.306	0.402	0.427	0.467	–	0.432	0.941	0.91	0.943	–	0.754
HOP-62	0.875	1.03	0.634	0.12	0.0921	0.24	0.238	0.25	0.167	0.172	0.363	0.466	0.386	0.212	0.17	0.938	1.04	1.02	0.935	0.248
LC-2-ad	1.01	0.877	0.548	0.126	0.0893	0.776	0.876	0.713	0.645	0.227	0.437	0.437	0.429	0.316	0.226	0.452	0.448	0.527	0.278	0.171
LCLC-97TM1	0.903	1.12	0.647	0.405	0.0945	0.197	0.21	0.255	0.259	0.185	0.213	0.268	0.268	0.251	0.21	0.325	0.387	0.433	0.395	0.295

Cell Line	relative viability ([1]; first compound 0.00128 µM)	relative viability ([1]; first compound 0.004048 µM)	relative viability ([1]; first compound 0.0128 µM)	relative viability ([1]; first compound 0.04048 µM)	relative viability ([1]; first compound 0.128 µM)	relative viability ([2]; first compound 0.00128 µM)	relative viability ([2]; first compound 0.004048 µM)	relative viability ([2]; first compound 0.0128 µM)	relative viability ([2]; first compound 0.04048 µM)	relative viability ([2]; first compound 0.128 µM)	relative viability ([3]; first compound 0.00128 µM)	relative viability ([3]; first compound 0.004048 µM)	relative viability ([3]; first compound 0.0128 µM)	relative viability ([3]; first compound 0.04048 µM)	relative viability ([3]; first compound 0.128 µM)	relative viability ([4]; first compound 0.00128 µM)	relative viability ([4]; first compound 0.004048 µM)	relative viability ([4]; first compound 0.0128 µM)	relative viability ([4]; first compound 0.04048 µM)	relative viability ([4]; first compound 0.128 µM)
LK-2	1.04	1.01	0.752	0.464	0.158	0.269	0.37	0.187	0.0931	0.0957	0.161	0.174	0.153	0.227	0.172	0.212	0.249	0.357	0.232	0.176
LOU-NH91	0.852	0.795	0.521	0.328	0.36	0.806	0.724	0.623	0.47	0.393	0.663	0.475	0.39	0.327	0.307	0.666	0.624	0.516	0.365	0.353
LU99A	0.885	0.965	0.323	0.288	0.141	0.917	0.915	0.863	0.749	0.213	0.288	0.345	0.399	0.276	0.132	0.588	0.512	0.331	0.184	0.134
LXF-289	0.907	0.874	0.694	0.449	0.152	0.4	0.473	0.355	0.297	0.19	0.204	0.22	0.203	0.127	0.0677	0.789	0.783	0.73	0.572	0.163
NCI-H23	0.933	0.882	0.233	0.204	0.131	0.294	0.226	0.251	0.185	0.16	0.425	0.563	0.365	0.213	0.187	0.426	0.5	0.403	0.155	0.123
NCI-H322M	0.616	0.612	0.65	0.522	0.294	0.811	0.706	0.641	0.475	0.442	0.478	0.443	0.337	0.316	0.325	0.811	0.92	0.979	0.65	0.442
NCI-H358	0.504	0.324	0.162	0.137	0.121	0.198	0.141	0.0682	0.0758	0.062	0.115	0.0905	0.0894	0.0684	0.0644	0.752	0.268	0.152	0.118	0.0862
NCI-H460	0.962	0.451	0.016	0.0135	0.0137	0.333	0.321	0.0276	0.0244	0.0254	0.478	0.521	0.0911	0.0297	0.0214	0.685	0.521	0.0433	0.0161	0.013
NCI-H520	0.797	0.654	0.396	0.132	0.112	0.364	0.555	0.411	0.16	0.171	0.453	0.47	0.457	0.253	0.24	0.924	0.663	0.492	0.112	0.0889
NCI-H596	1.19	1.06	1.17	0.996	0.818	1.05	0.988	0.899	0.891	0.502	0.959	0.832	1.01	0.443	0.258	0.95	0.834	1.03	0.986	0.542
NCI-H647	1.15	0.386	0.0807	0.0919	0.0634	0.365	0.272	0.0949	0.129	0.102	0.419	0.222	0.0879	0.0995	0.0751	1.11	0.755	0.101	0.0977	0.08
NCI-H650	0.982	1.05	0.62	0.333	0.215	0.315	0.339	0.384	0.302	0.196	0.698	0.675	0.702	0.584	0.153	0.759	0.685	0.6	0.476	0.134
NCI-H661	0.445	0.436	0.47	0.416	0.259	0.496	0.552	0.473	0.341	0.257	0.372	0.326	0.358	0.344	0.289	1.13	1.02	0.947	0.841	0.532
NCI-H727	0.775	0.765	0.829	0.238	0.342	0.871	0.915	0.875	0.538	0.411	0.569	0.682	0.53	0.453	0.25	0.968	0.74	0.586	0.191	0.188
NCI-H838	1.02	0.878	0.141	0.121	0.0916	0.405	0.45	0.217	0.195	0.2	0.315	0.309	0.161	0.135	0.134	0.748	0.729	0.259	0.118	0.112
